Measurements published in US12371453B2, “Polypeptide having antibacterial activity, composition for preventing or treating sepsis comprising same, and antibacterial composition” (priority 2019, dated 2025).
In brackets after ≈: the same amount, converted by molar mass. Like-named read-outs stand apart in the source and are kept apart here. Square brackets hold non-standard residues; d marks the D form. Peptide text beside a SMILES is read from it.

Assays:
E. coli = assay type: cell-based
[1] = system: Carbapenem resistant (CR)-Acinetobactor baumannii; assay: organism not typed
Protocol: (§1) The antibacterial activity was evaluated according to an antibacterial activity test method for measuring the minimum inhibitory concentration 50 (MIC50; the minimal concentration that kills 50% of bacteria).
(§2) More specifically, 100 μL of a medium was dispensed into each well of a 96-well plate, and in the first column, an antibiotic and a peptide in 200 μL of the medium were dispensed. 1/2 serial dilution was performed from columns 1 to 11 and five types of antibiotic-resistant bacteria (ESBL-resistant E. coli, carbapenem-resistant A. baumannii, carbapenem-resistant Klebsiella pneumoniae, carbapenem-resistant Pseudomonas aeruginosa, colistin-resistant Acinetobactor baumannii), which had been previously cultured, were diluted (OD600 nm value in dilution: approximately 0.0025) and dispensed into each well. The plate was incubated in a 37° C. incubator for 4 hours, and measured at OD600 nm.

lipoprotein (LPP) = assay: LPP binding by ITC analysis; settings: cell wall component of gram-positive bacteria (S. aureus)
Source text: (§3) The binding affinity to lipoteichoic acid (LTA) and lipoprotein (LPP), which are cell wall components of gram-positive bacteria (S. aureus), was confirmed through ITC analysis using allD FP13-NH2.
(§4) The binding affinity was confirmed using the ITC analysis method, and the experimental method in Example 1 was applied mutatis mutandis.

[2] = system: Escherichia coli DH5α (ATCC PTA-4750); assay: microbe, parasite or virus in culture; settings: Escherichia coli DH5α, 4 hours
Protocol: (§5) To compare the antibacterial activity between the four commercially available antibiotics (ampicillin, gentamicin, levofloxacin and imipenem) and the allD FP13-NH2 (AcOH) peptide, an antibacterial activity test was performed to measure the minimum inhibitory concentrations (MIC50 and MIC80) for gram-negative and gram-positive standard strains (Escherichia coli DH5α, Escherichia coli K1, Acinetobacter baumannii, Pseudomonas aeruginosa, Salmonella enteritidis, Salmonella typhimurium, and Klebsiella pneumoniae).
(§6) More specifically, 100 μL of a medium was dispensed into each well of a 96-well plate, and in the first column, an antibiotic and a peptide in 200 μL of the medium were dispensed. 1/2 serial dilution was performed from columns 1 to 11, and gram-negative and gram-positive bacteria which had been previously cultured were diluted (OD600 nm value in dilution: approximately 0.0025) and dispensed into each well. The plate was incubated in a 37° C. incubator for 4 hours, and measured at OD600 nm.

[3] = system: Pseudomanas aeruginosa PAO1 (ATCC 47085D-5); assay: microbe, parasite or virus in culture; settings: PAO1
Protocol: as §5, §6

[4] = system: Acinetobacter baumannii (ATCC 19606); assay: microbe, parasite or virus in culture; settings: ATCC 19606
Protocol: as §5, §6

Escherichia coli K1 = assay: microbe, parasite or virus in culture; settings: K1
Protocol: as §5, §6

[5] = system: Salmonela enteritidis (ATCC 13076); assay: microbe, parasite or virus in culture; settings: ATCC 13076
Protocol: as §5, §6

[6] = system: Klebiella pneumoniae (ATCC 13883); assay: microbe, parasite or virus in culture; settings: ATCC 13883
Protocol: as §5, §6

[7] = system: Salmonela typhimurium (ATCC 53648); assay: microbe, parasite or virus in culture; settings: Salmonella typhimurium ATCC 53648
Protocol: as §5, §6

[8] = system: trypsin, protease K, and chymotrypsin; settings: read out by antibacterial activity
[9] = Calcein dye leakage from liposome mimicking gram-positive bacterial cell membrane; assay type: biochemical; settings: calcein-encapsulated liposome
Protocol: To study the action mechanisms for FPT2-NH2, FPT3-NH2, allD FPT2-NH2, and allD FP13-NH2 peptides, the disruption ability of the peptides against a liposome mimicking a bacterial cell membrane was measured.

CR-Klebsiella pneumoniae = settings: CR-
Protocol: as §1, §2

ESBL (E. coli) = settings: ESBL
Protocol: as §1, §2

[10] = system: Colistin resistant AB (Acinetobactor baumannii)
Protocol: as §1, §2

[11] = LTA binding by ITC analysis; settings: cell wall component of gram-positive bacteria (S. aureus)
Source text: as §3, §4

[12] = LPS binding affinity by Isothermal Titration Calorimeter (ITC); parameters: species or system E. coli K1
Source text: FPT (ADK 44-54) is denoted by wild type (WT), and peptides in which a point mutation occurred at various sites in WT were manufactured (FP3, FP5, FP6, and FP9). To increase the interaction with LPS in a residue sequence of FP3, peptides were designed based on FP3- and LPS-binding models (FP12-NH2 and FP13-NH2), and peptides were designed by additionally introducing a non-natural amino acid and an amino acid isomer (allomeric D-type amino acid) (allD FP12-NH2, allD FP13-NH2, allD FP-13-9a, allD FP-13-9w, allD FP-13-9k, and allD FP13-NH2 (AcOH)). In addition, an N-terminus PEGylated peptide (PEG-alld FP13-NH2 (AcOH)) was additionally designed, synthesized, and provided by ANYGEN, Co. Ltd. The binding affinity between each of the provided peptides and lipopolysaccharide (LPS) was confirmed through measuring the binding affinity (Kd) using Isothermal Titration Calorimeter (ITC).
Specifically, a method of analyzing binding affinity (Kd) between a peptide and LPS is as follows.
Measurement was carried out using a Malvern MicroCal PEAQ-ITC cell instrument, and the following pretreatment was carried out to confirm interaction with LPS. The amount and morphology of a sample cell are 300 μL and coin-shaped, fixed-in-place, respectively; a syringe rotation rate was 1,200 rpm; and a temperature was 30° C., 35° C. or 25° C.
Before the experiment, LPS and the peptide were previously diluted with PBS, thereby preparing 2 mM LPS and 0.2 mM peptide. 300 μL of the peptide was added into cells in the ITC instrument, which had been washed, and 40 μL of LPS was put into a syringe. After measurement conditions for ITC (temperature, number of injections) were set, the syringe was inserted into the cell, and ITC measurement was started. When the measurement was completed, analysis is performed, and the Kd values of LPS and the peptide were calculated.

Question: With CC(C)C[C@@H](NC(=O)[C@H](N)CCCCN)C(=O)N[C@H](CCCNC(=N)N)C(=O)N[C@@H](C(=O)N[C@H](CCCCN)C(=O)N[C@H](CC(C)C)C(=O)N[C@H](CCCNC(=N)N)C(=O)N[C@H](CCCNC(=N)N)C(=O)N[C@H](Cc1ccc(O)cc1)C(=O)N[C@H](CC(C)C)C(=O)N[C@H](CCCNC(=N)N)C(N)=O)C(C)C [allD FP13-NH2] (H-[dK][dL][dR][dV][dK][dL][dR][dR][dY][dL][dR]-NH2; N-terminus assumed) as the compound, how does the MIC50 (E. coli) read?
Answer: 2 µM (≈ 3 µg/mL)

Question: What about the MIC90 (E. coli) of the same compound?
Answer: 4 µM (≈ 6 µg/mL)

Question: And the MIC90 (E. coli; E. coli + 0.8 uM Chymotrypsin)?
Answer: 6(4~8) uM

Question: And the MIC90 (E. coli; E. coli + 0.8 uM protease K)?
Answer: 6(4~8) uM

Question: And the “MIC50, Carbapenem resistant (CR)-Acinetobactor baumannii” value [1]?
Answer: <4 µg/mL

Question: What about the “binding to LPP (ITC)” value (lipoprotein (LPP)) of the same compound?
Answer: binds

Question: And the “MIC (μg/ml) 50%” value ([2]; 50% growth inhibition)?
Answer: <1.0 µg/mL

Question: What about the “MIC (μg/ml) 80%” value ([2]; 80% growth inhibition) of the same compound?
Answer: <2.0 µg/mL

Question: What about the “MIC (μg/ml) 50%” value [3] of the same compound?
Answer: <0.5 µg/mL

Question: What about the “MIC (μg/ml) 80%” value [3] of the same compound?
Answer: <1.0 µg/mL

Question: And the “MIC (μg/ml) 50%” value [4]?
Answer: <4.0 µg/mL

Question: What about the “MIC (μg/ml) 80%” value [4] of the same compound?
Answer: <8.0 µg/mL

Question: What about the “MIC (μg/ml) 50%” value (Escherichia coli K1) of the same compound?
Answer: <2.0 µg/mL

Question: And the “MIC (μg/ml) 80%” value (Escherichia coli K1)?
Answer: <4.0 µg/mL

Question: What about the “MIC (μg/ml) 50%” value [5] of the same compound?
Answer: <1.0 µg/mL

Question: And the “MIC (μg/ml) 80%” value [5]?
Answer: <2.0 µg/mL

Question: And the “MIC (μg/ml) 50%” value [6]?
Answer: <0.5 µg/mL

Question: And the “MIC (μg/ml) 80%” value [6]?
Answer: <1.0 µg/mL

Question: What about the “MIC (μg/ml) 50%” value ([7]; 50% growth inhibition) of the same compound?
Answer: <2.0 µg/mL

Question: What about the “MIC (μg/ml) 80%” value ([7]; 80% growth inhibition) of the same compound?
Answer: <4.0 µg/mL

Question: And the “resistance to the proteolytic enzyme” value [8]?
Answer: much improved resistance

Question: What about the “dye leakage, EYPG/EYPC (6:4, w/w) liposome mimicking gram-positive bacterial cell membrane” value [9] of the same compound?
Answer: high dye leakage

Question: And the “MIC50, CR-Klebsiella pneumoniae” value (CR-Klebsiella pneumoniae)?
Answer: <8 µg/mL

Question: What about the “MIC50, ESBL (E. coli)” value (ESBL (E. coli)) of the same compound?
Answer: <0.5 µg/mL

Question: What about the “MIC50, Colistin resistant AB” value [10] of the same compound?
Answer: <16 µg/mL

Question: And the MIC50 (S. aureus)?
Answer: 4 µM (≈ 6 µg/mL)

Question: And the MIC90 (S. aureus)?
Answer: 8 µM (≈ 12 µg/mL)

Question: What about the “binding to LTA (ITC)” value [11] of the same compound?
Answer: binds

Question: And the “LPS binding affinity (in words)” value ([12]; compared with FP1 (wild type, WT))?
Answer: strong LPS binding affinity

Question: And the Kd ([12]; peptide binding to LPS, read-out: Kd (calculated by ITC))?
Answer: 4.78 µM
